What all share (assay type): cell-based
In test [1] the target is T1, human β3 adrenergic receptor (Homo sapiens, UniProt P13945).
T1 construct: expressed in transfected cells; host or cells: CHO / CHO-K1
In words: Whole-cell cAMP Flashplate assay, heterologously expressed receptor. Particulars: CHO-K1 cells. How it is done: (§1) cAMP assays were performed in a radioimmunoassay format using the Flashplate Adenylyl Cyclase Activation Assay System with [^125I]-cAMP (NEN SMP004, PerkinElmer Life Sciences Inc., Boston, Mass.), according to the manufacturers instructions. For the determination of β1 and β2 […], […] HEK-293 cell lines stably expressing cloned human, β1 and β2 receptors were grown to near confluency in DMEM supplemented with 10% FBS and Geneticin (500 μg/mL). For the determination β3 receptor agonist potency (EC50), CHO-K1 cell line stably expressing cloned human or β3 adrenergic receptors was grown to near confluency in Hams F-12 media supplemented with 10% FBS and Geneticin (250 μg/mL). Cells were rinsed with PBS and detached in dPBS (Dulbecco's Phosphate Buffered Saline, without CaCl2 and MgCl2) containing 2 mM EDTA or Trypsin-EDTA solution (0.05% trypsin/0.53 mM EDTA). After counting cells in Coulter cell counter, cells were pelleted by centrifugation at 1,000 rpm and re-suspended in stimulation buffer containing IBMX (PerkinElmer Kit) pre-warmed to room temperature to a concentration of 1.6×10^6 to 2.8×10^6 cells/mL. About 40,000 to 80,000 cells per well were used in this assay. Test compounds (10 mM in DMSO) were diluted into PBS containing 0.1% BSA in Beckman Biomek-2000 and tested at 11 different concentrations ranging from 100 μM to 1 pM. Reactions were incubated for 10 min at 37° C. and stopped by adding 100 μL of cold detection buffer containing [^125I]-cAMP (NEN SMP004, PerkinElmer Life Sciences, Boston, Mass.). The amount of cAMP produced (pmol/well) was calculated based on the counts observed for the samples and cAMP standards as described in the manufacturer's user manual. Data were analyzed by nonlinear regression analysis with the GraphPad Prism Software package (GraphPad Software, Inc., San Diego, Calif.) with the sigmoidal equation. The Cheng-Prusoff equation (Cheng Y, and Prusoff W H., Biochemical Pharmacology, 1973, 22, 23, 3099-108) was used to calculate the […] values.

Test [2] addresses T2, human β1 adrenergic receptor (Homo sapiens, UniProt P08588).
T2 construct: expressed in transfected cells; host or cells: HEK-293
The test is described as above. Particulars: HEK-293 cells. How it is done:
as §1

For test [3], the target named is T3, human β2 adrenergic receptor (Homo sapiens, UniProt P07550).
T3 construct: expressed in transfected cells; host or cells: HEK-293
The test is described as above. The following applies: HEK-293 cells. How it is done: as §1

A further test addresses T4, hM1 receptor (Homo sapiens, UniProt P11229).
T4 construct: expressed in transfected cells; host or cells: CHO
T4 sequence (P11229 1-460): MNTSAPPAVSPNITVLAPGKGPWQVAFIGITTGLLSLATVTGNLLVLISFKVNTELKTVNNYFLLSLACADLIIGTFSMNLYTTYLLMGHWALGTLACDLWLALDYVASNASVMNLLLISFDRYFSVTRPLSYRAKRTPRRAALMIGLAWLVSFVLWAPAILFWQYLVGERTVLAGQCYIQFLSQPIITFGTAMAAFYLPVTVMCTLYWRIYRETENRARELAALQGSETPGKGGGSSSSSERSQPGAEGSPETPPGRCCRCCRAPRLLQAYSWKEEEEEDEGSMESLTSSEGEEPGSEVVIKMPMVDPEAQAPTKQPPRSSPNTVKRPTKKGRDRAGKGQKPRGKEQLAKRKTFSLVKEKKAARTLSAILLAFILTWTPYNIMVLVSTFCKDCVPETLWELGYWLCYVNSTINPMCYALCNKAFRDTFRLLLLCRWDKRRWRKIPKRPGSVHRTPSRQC
In words: Blockade of agonist-mediated calcium release via FLIPR (Assay C). Particulars: CHO cells stably expressing hM1. The method, then:
(§2) In this functional assay, the functional potency of a test compound as an antagonist of hM1, hM3 and […] receptors was determined by measuring the ability of the test compound to inhibit agonist-mediated increases in intracellular calcium.
(§3) CHO cells stably expressing the receptors were seeded into 96-well FLIPR plates the night before the assay was done. Seeded cells were washed twice with FLIPR buffer (10 mM HEPES, pH 7.4, 2 mM calcium chloride, 2.5 mM probenecid in Hank's Buffered Salt Solution (HBSS) without calcium and magnesium) using Cellwash (MTX Labsystems, Inc.) to remove growth media. After washing, each well contained 50 μL of FLIPR buffer. The cells were then incubated with 50 μL/well of 4 μM FLUO-4AM (a 2× solution was made) for 40 minutes at 37° C., 5% carbon dioxide. Following the dye incubation period, cells were washed two times with FLIPR buffer, leaving a final volume of 50 μL in each well.
(§4) The dose-dependent stimulation of intracellular Ca^2+ release for oxotremorine was determined so that the test compound could be measured against oxotremorine stimulation at an EC90 concentration. Cells were first incubated with compound dilution buffer for 20 minutes and then oxotremorine was added. […]
(§5) The parameters used for the FLIPR were: exposure length of 0.4 seconds, laser strength of 0.5 watts, excitation wavelength of 488 nm, and emission wavelength of 550 nm. Baseline was determined by measuring the change in fluorescence for 10 seconds prior to addition of oxotremorine. Following oxotremorine stimulation, the FLIPR continuously measured the change of fluorescence every 0.5 to 1 second for 1.5 minutes to capture the maximum fluorescence change.
(§6) The change of fluorescence was expressed as maximum fluorescence minus baseline fluorescence for each well. The raw data was analyzed against the logarithm of test compound concentration by nonlinear regression with GraphPad Prism (GraphPad Software, Inc., San Diego, Calif.) using the built-in model for sigmoidal dose-response. […]

The next test concerns the target T5, hM3 receptor (Homo sapiens, UniProt P20309).
T5 construct: expressed in transfected cells; host or cells: CHO
The test is described as above. Particulars: CHO cells stably expressing hM3. How it is done: as §2, §3, §4, §5, §6

Another test has as its system cM5 receptor. The test is described as above. The following applies: CHO cells stably expressing cM5. The method, then: as §2, §3, §4, §5, §6

Some results are limits rather than exact numbers.

T2 sequence (P08588 whole entry): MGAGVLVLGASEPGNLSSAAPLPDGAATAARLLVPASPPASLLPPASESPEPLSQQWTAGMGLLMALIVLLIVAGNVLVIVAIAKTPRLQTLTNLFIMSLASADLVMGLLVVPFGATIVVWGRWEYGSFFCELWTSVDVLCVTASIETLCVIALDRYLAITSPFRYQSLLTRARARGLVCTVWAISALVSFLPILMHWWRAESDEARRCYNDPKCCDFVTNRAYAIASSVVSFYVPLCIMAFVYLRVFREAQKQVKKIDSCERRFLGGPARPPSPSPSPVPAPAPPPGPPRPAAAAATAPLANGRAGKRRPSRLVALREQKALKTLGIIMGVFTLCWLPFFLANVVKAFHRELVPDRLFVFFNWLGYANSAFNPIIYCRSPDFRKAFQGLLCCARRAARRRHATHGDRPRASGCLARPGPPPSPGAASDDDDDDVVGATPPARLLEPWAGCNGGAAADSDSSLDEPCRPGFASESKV
T1 sequence (P13945 whole entry): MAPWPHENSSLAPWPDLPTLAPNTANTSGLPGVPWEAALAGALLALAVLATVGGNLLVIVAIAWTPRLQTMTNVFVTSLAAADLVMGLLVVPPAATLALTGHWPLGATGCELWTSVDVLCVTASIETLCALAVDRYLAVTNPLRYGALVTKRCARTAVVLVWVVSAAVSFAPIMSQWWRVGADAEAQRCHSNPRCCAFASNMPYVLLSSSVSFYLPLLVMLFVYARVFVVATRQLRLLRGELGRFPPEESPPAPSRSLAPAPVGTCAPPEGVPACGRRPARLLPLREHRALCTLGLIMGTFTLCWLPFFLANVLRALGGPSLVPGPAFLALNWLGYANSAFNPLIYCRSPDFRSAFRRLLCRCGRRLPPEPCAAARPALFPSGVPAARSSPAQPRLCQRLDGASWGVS
T5 sequence (P20309 whole entry): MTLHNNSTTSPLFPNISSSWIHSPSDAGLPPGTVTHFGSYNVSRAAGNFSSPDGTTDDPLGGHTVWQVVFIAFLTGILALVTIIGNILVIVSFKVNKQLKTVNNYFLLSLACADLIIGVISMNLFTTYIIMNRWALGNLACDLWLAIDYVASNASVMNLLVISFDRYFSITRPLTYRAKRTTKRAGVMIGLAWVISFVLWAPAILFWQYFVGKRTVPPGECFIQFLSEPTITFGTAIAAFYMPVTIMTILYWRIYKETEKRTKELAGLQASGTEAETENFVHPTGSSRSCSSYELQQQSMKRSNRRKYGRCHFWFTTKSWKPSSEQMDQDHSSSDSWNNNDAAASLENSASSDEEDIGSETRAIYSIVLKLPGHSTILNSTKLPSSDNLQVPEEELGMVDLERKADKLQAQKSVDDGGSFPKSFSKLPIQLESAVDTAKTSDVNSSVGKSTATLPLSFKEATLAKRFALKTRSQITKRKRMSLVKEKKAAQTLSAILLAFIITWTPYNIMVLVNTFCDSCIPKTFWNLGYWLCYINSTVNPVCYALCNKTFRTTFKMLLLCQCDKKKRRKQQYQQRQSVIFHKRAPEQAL
T3 sequence (P07550 whole entry): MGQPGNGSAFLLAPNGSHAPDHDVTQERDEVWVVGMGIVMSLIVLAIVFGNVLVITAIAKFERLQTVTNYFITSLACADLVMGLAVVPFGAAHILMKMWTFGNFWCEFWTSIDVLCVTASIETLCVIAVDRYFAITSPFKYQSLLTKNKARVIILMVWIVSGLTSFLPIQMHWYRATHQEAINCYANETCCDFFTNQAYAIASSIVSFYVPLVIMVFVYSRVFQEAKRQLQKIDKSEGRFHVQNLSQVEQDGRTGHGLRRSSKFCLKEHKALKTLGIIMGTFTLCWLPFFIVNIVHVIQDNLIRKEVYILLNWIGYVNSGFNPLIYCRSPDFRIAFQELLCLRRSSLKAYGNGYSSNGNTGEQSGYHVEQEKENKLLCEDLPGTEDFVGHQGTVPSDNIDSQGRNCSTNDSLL

Broadly, the EC50 is the concentration giving half of the maximal effect. Low values mean higher potency in that assay, high ones lower potency in that assay. Take `Cc1cc(NC(=O)CCN2CCC(OC(=O)Nc3ccccc3-c3ccccc3)CC2)c(C)cc1CNC[C@H](O)c1ccc(O)c(NC=O)c1` [compound of formula I, biphenyl-2-ylcarbamic acid 1-[2-(4-{[(R)-2-(3-formylamino-4-hydroxyphenyl)-2-hydroxyethylamino]methyl}-2,5-dimethylphenylcarbamoyl)ethyl]-piperidin-4-yl ester]: the EC50 in test [1] is over 700 nM; in test [2], about 30 nM; in test [3] it was under 10 nM. Further, the “Kobs for blockade of agonist-mediated calcium release” value at hM1 receptor, on hM3 receptor and in the test on cM5 receptor was “less than 10 nM” in each case.

Values taken from patent US7880010B2, “Crystalline forms of a dimethylphenyl compound” (Theravance, Inc., priority 2006, dated 2011).
